Common to all, as to format: cell-based, murine and human
Conditions in all cases: GAL4-PPAR LBD chimera

In one experiment the target is T1, PPAR-gamma (UniProt P37231).
T1 sequence (P37231 1-505): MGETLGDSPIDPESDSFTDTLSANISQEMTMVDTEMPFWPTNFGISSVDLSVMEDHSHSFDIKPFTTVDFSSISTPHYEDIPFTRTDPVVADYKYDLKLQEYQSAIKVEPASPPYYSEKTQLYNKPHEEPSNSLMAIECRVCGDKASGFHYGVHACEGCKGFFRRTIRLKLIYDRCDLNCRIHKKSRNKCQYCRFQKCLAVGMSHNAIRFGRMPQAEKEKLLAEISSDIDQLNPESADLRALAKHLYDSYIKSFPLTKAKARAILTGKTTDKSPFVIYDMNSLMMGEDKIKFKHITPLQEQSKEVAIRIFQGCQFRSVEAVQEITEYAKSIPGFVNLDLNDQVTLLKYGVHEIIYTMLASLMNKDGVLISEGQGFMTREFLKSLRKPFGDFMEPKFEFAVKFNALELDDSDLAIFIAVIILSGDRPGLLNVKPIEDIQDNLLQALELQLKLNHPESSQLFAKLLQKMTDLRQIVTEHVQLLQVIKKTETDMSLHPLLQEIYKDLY
Description: PPAR-gamma transactivation assay (GAL4 chimera, luciferase reporter) in CV-1 cells. The source says: (§1) Compounds may be screened for functional potency in transient transfection assays in CV-1 cells for their ability to activate the PPAR subtypes (transactivation assay). A previously established chimeric receptor system was utilized to allow comparison of the relative transcriptional activity of the receptor subtypes on the same synthetic response element and to prevent endogenous receptor activation from complicating the interpretation of results. See, for example, Lehmann, J. M.; Moore, L. B.; Smith-Oliver, T. A; Wilkinson, W. O.; Willson, T. M.; Kliewer, S. A., An antidiabetic thiazolidinedione is a high affinity ligand for peroxisome proliferator-activated receptor […], J. Biol. Chem., 1995, 270, 12953-6. The ligand binding domains for murine and human PPAR-alpha, PPAR-gamma, and PPAR-delta are each fused to the yeast transcription factor GAL4 DNA binding domain. CV-1 cells were transiently transfected with expression vectors for the respective PPAR chimera along with a reporter construct containing four or five copies of the GAL4 DNA binding site driving expression of luciferase. After 8-16 h, the cells are replated into multi-well assay plates and the media is exchanged to phenol-red free DME medium supplemented with 5% delipidated calf serum. 4 hours after replating, cells were treated with either compounds or 1% DMSO for 20-24 hours. Luciferase activity was then assayed with Britelite (Perkin Elmer) following the manufacturer's protocol and measured with either the Perkin Elmer Viewlux or Molecular Devices Acquest (see, for example, Kliewer, S. A., et. al. Cell 1995, 83, 813-819). Rosiglitazone is used as a positive control in the PPARγ assay. Wy-14643 and GW7647 are used as positive controls in the PPARα assay. GW501516 is used as the positive control in the PPARδ assay.
(§2) Compounds of Examples 1-141 were assayed to measure their biological activity with respect to their EC50 values for modulating PPAR-alpha, PPAR-gamma, and PPAR-delta as set forth in Table 1.
In general terms: A reporter such as luciferase makes a cellular process visible.

For a further experiment, the target named is T2, PPAR-alpha (UniProt Q07869).
T2 sequence (Q07869 1-468): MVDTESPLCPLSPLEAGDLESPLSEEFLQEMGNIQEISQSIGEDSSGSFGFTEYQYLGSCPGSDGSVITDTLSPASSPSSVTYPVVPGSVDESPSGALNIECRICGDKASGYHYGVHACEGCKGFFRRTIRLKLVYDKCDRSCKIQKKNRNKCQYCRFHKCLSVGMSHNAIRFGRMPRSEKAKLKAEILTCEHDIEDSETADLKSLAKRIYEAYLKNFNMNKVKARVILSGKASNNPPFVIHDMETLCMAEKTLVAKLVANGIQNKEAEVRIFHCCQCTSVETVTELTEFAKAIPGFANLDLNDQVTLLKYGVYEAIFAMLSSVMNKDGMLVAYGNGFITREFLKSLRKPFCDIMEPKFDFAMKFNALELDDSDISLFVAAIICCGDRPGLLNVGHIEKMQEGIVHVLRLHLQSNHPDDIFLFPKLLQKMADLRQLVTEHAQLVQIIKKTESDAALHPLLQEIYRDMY
Description: PPAR-alpha transactivation assay (GAL4 chimera, luciferase reporter) in CV-1 cells.
Description: as §1, §2

The target in a further experiment is T3, PPAR-delta (UniProt Q03181).
T3 sequence (Q03181 1-441): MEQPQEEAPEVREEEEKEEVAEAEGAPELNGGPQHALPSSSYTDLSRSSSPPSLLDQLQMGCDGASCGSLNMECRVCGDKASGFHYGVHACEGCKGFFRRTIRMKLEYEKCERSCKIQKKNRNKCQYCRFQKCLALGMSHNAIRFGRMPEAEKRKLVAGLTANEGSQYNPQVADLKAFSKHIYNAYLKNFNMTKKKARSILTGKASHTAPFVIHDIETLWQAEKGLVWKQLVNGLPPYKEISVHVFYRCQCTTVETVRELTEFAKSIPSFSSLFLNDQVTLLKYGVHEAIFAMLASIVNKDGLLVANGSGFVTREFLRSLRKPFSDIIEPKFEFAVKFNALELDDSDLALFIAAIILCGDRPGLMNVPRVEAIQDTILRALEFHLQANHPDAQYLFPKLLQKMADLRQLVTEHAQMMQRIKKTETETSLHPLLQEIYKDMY
The experiment can be described thus: PPAR-delta transactivation assay (GAL4 chimera, luciferase reporter) in CV-1 cells.
Description: as §1, §2

Ten compounds from patent US7517884B2 (Kalypsys Inc., priority 1998, dated 2009) can be followed below.

The term EC50 denotes the concentration at which the effect is half-maximal. High values mean a need for much substance, low ones an effect from little substance. `C[C@@H]1CN(c2ccc(C(F)(F)F)c(Cl)c2)C[C@H](C)N1S(=O)(=O)c1cccc2c1CC(C(=O)O)C2` (relative stereo) [Example 82, 4-[4-(3-chloro-4-trifluoromethyl-phenyl)-cis-2,6-dimethyl-piperazine-1-sulfonyl]-indan-2-carboxylic acid]: the figures for the EC50 at PPAR-gamma, on PPAR-alpha and at PPAR-delta were above 100 µM, above 100 µM and below 5 µM, respectively.
With `O=C(O)C1Cc2cccc(S(=O)(=O)N3CCN(c4ccc(C(F)(F)F)cn4)CC3)c2C1` (single isomer, unassigned) [Example 11], the EC50 was below 5 µM at PPAR-gamma, 5 to 100 µM on PPAR-alpha and below 5 µM at PPAR-delta.
For `C[C@@H]1CN(c2ccc(C(F)(F)F)cn2)C[C@H](C)N1S(=O)(=O)c1ccc2c(c1)C(C(=O)O)CC2` (single isomer, unassigned) [Example 75, 6-[cis-2,6-dimethyl-4-(5-trifluoromethylpyridin-2-yl)-piperazine-1-sulfonyl]-indan-1-carboxylic acid], the results for the concentration giving a half-maximal response (EC50) at PPAR-gamma, at PPAR-alpha and at PPAR-delta were 5 to 100 µM, 5 to 100 µM and below 5 µM, respectively.
Turning to `C[C@@H]1CN(c2ccc(C(F)(F)F)cn2)C[C@H](C)N1S(=O)(=O)c1ccc2c(c1)C(C(=O)O)CC2` (single isomer, unassigned) [Example 76, 6-[cis-2,6-dimethyl-4-(5-trifluoromethylpyridin-2-yl)-piperazine-1-sulfonyl]-indan-1-carboxylic acid], the EC50 at PPAR-gamma was above 100 µM; at PPAR-alpha, above 100 µM; at PPAR-delta, below 5 µM.
Take `C[C@@H]1CN(c2ccc(OC(F)(F)F)cc2)C[C@H](C)N1S(=O)(=O)c1cccc2c1CC(C(=O)O)C2` (single isomer, unassigned) [Example 80]: the concentration for a half-maximal effect (EC50) on PPAR-gamma is above 100 µM; at PPAR-alpha, above 100 µM; at PPAR-delta, below 5 µM.
`CC1CN(S(=O)(=O)c2cccc3c2CC(C(=O)O)C3)C(C)CN1c1ccc(C(F)(F)F)cn1` (single isomer, unassigned) [Example 118, 4-[2S,5S-dimethyl-4-(5-trifluoromethyl-pyridin-2-yl)-piperazine-1-sulfonyl]-indan-2-carboxylic acid]: the EC50 on PPAR-gamma was 5 to 100 µM; at PPAR-alpha, above 100 µM; on PPAR-delta, below 5 µM.
In the case of `CC1CN(S(=O)(=O)c2cccc3c2CC(C(=O)O)C3)C(C)CN1c1ccc(C(F)(F)F)cn1` (single isomer, unassigned) [Example 119, 4-[2S,5S-dimethyl-4-(5-trifluoromethyl-pyridin-2-yl)-piperazine-1-sulfonyl]-indan-2-carboxylic acid], the values for the EC50 on PPAR-gamma, at PPAR-alpha and on PPAR-delta were above 100 µM, above 100 µM and 5 to 100 µM, respectively.
Consider `C[C@@H]1CN(c2ccc(Cl)cc2)C[C@H](C)N1S(=O)(=O)c1cccc2c1CC(C(=O)O)C2` (single isomer, unassigned) [Example 127, 4-(4-(4-chlorophenyl)-cis-2,6-dimethylpiperazin-1-ylsulfonyl)-2,3-dihydro-1H-indene-2-carboxylic acid], for which the EC50 on PPAR-gamma was above 100 µM; on PPAR-alpha, above 100 µM; at PPAR-delta, below 5 µM.
With `C[C@@H]1CN(c2ccc(Cl)cc2)C[C@H](C)N1S(=O)(=O)c1cccc2c1CC(C(=O)O)C2` (single isomer, unassigned) [Example 128, 4-(4-(4-chlorophenyl)-cis-2,6-dimethylpiperazin-1-ylsulfonyl)-2,3-dihydro-1H-indene-2-carboxylic acid], the EC50 on PPAR-gamma is above 100 µM; on PPAR-alpha it was above 100 µM; on PPAR-delta it was 5 to 100 µM.
`C[C@@H]1CN(c2cccc(OC(F)(F)F)c2)C[C@H](C)N1S(=O)(=O)c1cccc2c1CC(C(=O)O)C2` (single isomer, unassigned) [Example 129, 4-[cis-2,6-dimethyl-4-(3-trifluoromethoxyphenyl)piperazin-1-ylsulfonyl]-2,3-dihydro-1H-indene-2-carboxylic acid]: the values for the EC50 on PPAR-gamma, at PPAR-alpha and on PPAR-delta were above 100 µM, above 100 µM and below 5 µM, respectively.
